Assays:
BAZ2A (h) bromodomain = target: T1, BAZ2A (h) bromodomain (Homo sapiens, UniProt Q9UIF9); test: Epigenetic binding assay, Bromodomain; conditions: read-out: % Inhibition of Control Specific Binding
T1 construct: Bromodomain
T1 sequence (Q9UIF9 1793-1897 limits assumed): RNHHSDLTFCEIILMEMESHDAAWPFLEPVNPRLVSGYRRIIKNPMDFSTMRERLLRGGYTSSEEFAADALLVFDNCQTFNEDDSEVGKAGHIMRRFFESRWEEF

FBXL10 (h) = target: T2, FBXL10 (h) (Homo sapiens, UniProt Q8NHM5); test: Epigenetic enzyme assay, Demethylases (KDMs); type: biochemical; conditions: 10 μM; read-out: % Inhibition of Control Values
T2 sequence (Q8NHM5 1-1336): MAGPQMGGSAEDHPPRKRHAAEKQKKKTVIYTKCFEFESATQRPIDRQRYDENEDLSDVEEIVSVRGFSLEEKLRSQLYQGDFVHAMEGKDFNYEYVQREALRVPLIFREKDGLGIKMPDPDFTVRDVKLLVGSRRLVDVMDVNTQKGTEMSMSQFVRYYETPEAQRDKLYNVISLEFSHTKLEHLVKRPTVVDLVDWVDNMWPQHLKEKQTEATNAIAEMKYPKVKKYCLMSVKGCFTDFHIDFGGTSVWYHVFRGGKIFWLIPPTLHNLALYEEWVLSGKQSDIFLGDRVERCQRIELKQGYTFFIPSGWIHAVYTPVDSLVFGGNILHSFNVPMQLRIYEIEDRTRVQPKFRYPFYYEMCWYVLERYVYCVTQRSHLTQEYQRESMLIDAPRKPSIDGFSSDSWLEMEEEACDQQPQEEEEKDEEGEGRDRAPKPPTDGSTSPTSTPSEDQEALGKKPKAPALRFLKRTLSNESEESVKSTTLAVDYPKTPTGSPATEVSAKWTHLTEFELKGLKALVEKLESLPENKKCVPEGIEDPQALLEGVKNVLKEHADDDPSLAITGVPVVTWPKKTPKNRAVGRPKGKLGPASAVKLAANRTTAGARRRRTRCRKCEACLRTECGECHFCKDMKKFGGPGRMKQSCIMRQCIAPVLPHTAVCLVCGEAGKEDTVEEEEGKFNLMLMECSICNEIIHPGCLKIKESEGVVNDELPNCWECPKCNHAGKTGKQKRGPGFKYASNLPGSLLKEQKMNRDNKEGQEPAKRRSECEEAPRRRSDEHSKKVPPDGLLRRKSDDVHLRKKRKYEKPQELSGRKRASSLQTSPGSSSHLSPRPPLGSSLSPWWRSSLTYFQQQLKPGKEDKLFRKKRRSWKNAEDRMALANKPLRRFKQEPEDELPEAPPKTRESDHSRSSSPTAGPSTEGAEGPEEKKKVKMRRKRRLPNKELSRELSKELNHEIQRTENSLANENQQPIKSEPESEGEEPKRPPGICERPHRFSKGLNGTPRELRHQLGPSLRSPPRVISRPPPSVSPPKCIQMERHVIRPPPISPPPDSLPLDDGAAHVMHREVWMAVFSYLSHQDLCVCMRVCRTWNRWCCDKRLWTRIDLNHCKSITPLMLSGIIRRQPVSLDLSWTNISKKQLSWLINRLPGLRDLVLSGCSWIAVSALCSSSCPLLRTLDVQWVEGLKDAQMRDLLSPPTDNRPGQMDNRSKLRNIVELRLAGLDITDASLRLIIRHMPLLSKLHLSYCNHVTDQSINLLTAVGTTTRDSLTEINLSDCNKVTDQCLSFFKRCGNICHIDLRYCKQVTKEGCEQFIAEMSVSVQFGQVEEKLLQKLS

JMJD2B (h) = target: T3, JMJD2B (h) (Homo sapiens, UniProt O94953); test: Epigenetic enzyme assay, Demethylases (KDMs); type: biochemical; conditions: for inhibition at 10 µM: read-out: % Inhibition of Control Values
T3 sequence (O94953 1-1096): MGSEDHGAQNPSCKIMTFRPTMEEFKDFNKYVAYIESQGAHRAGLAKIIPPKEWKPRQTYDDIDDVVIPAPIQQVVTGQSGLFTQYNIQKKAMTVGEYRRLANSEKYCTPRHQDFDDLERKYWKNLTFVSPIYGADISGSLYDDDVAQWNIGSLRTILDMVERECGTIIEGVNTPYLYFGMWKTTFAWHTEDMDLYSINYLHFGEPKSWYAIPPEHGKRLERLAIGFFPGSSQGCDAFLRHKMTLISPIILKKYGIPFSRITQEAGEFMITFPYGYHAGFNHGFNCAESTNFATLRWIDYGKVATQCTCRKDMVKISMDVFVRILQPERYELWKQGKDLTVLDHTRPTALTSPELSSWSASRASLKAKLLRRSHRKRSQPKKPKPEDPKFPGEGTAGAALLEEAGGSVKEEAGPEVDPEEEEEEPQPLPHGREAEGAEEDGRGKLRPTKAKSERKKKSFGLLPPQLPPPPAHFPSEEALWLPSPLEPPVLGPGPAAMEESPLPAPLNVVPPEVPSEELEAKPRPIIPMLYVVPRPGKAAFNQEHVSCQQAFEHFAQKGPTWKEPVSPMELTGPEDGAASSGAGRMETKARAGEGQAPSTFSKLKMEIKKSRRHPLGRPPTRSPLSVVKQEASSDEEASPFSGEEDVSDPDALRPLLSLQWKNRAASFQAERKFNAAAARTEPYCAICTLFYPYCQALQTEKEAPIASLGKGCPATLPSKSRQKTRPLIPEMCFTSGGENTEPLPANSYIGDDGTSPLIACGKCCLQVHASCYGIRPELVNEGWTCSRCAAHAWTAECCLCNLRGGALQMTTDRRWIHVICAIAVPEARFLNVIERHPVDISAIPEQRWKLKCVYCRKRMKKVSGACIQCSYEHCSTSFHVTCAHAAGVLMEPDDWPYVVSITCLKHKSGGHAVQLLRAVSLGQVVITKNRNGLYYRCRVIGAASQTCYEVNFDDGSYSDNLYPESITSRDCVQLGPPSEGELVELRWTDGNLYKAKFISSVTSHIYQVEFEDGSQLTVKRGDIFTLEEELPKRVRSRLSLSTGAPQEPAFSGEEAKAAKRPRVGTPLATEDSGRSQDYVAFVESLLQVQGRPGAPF

hDNMT3a = hDNMT3a (Homo sapiens, UniProt Q9Y6K1); test: Epigenetic enzyme assay, DNA methyltransferases (DNMTs); type: biochemical; conditions: for inhibition at 10 µM: read-out: % Inhibition of Control Values
Chain of hDNMT3a (Q9Y6K1 whole entry, looked up): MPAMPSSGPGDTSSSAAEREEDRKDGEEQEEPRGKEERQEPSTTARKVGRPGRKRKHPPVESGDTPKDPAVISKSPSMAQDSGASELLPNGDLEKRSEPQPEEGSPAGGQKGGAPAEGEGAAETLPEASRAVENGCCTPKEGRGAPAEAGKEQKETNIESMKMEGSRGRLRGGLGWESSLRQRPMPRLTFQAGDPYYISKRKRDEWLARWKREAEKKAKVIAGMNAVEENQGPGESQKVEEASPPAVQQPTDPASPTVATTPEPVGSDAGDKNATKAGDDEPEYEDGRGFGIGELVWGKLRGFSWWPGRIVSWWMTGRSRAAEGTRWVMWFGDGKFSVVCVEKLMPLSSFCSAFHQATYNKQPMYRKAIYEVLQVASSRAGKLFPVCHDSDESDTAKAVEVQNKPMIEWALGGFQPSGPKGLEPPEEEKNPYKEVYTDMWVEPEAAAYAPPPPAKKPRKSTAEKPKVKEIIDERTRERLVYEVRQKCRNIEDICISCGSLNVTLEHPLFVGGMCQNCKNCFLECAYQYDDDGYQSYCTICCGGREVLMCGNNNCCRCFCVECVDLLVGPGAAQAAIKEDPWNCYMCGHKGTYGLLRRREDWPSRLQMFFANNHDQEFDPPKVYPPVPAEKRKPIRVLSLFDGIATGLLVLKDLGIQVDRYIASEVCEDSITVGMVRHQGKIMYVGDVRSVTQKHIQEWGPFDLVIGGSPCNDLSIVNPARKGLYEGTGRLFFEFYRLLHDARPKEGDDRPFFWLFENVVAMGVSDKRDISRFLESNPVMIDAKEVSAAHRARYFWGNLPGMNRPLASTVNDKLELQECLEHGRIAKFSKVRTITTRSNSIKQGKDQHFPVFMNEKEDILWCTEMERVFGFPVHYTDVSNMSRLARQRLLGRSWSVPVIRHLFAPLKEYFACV

Compound: CC(C)=CCC[C@H](CO)[C@@H]1CC[C@@H](C)c2c1cc(C)c(O)c2O [Compound 1, 7,8,18-trihydroxyserrulat-14-ene]
- inhibition at 10 µM (BAZ2A (h) bromodomain): 56%
- inhibition at 10 µM (FBXL10 (h)): 37%
- % Inhibition of Control Values (JMJD2B (h); 10 μM): significant inhibitory activity
- inhibition at 10 µM (JMJD2B (h); 10 μM): 65%
- IC50 (JMJD2B (h); Table 11, inhibition/concentration-response curve, read-out: IC50): 12 µM
- inhibition at 10 µM (hDNMT3a): 3%

Compound: CC(C)=CCC[C@@H]1C(O)Oc2c(C)cc(O)c3c2[C@H]1CC[C@H]3C (stereo partly drawn) [Compound 2, 5,18-epoxyserrulat-14-en-8,18-diol]
- inhibition at 10 µM (BAZ2A (h) bromodomain): 17%
- inhibition at 10 µM (FBXL10 (h)): 7%
- inhibition at 10 µM (JMJD2B (h); 10 μM): 16%
- inhibition at 10 µM (hDNMT3a): 3%

Compound: CC(C)=CCC[C@@H]1COc2c(C)cc(O)c3c2[C@H]1CC[C@H]3C [Compound 3, 5,18-epoxy-8-hydroxyserrulat-14-ene]
- inhibition at 10 µM (BAZ2A (h) bromodomain): 16%
- inhibition at 10 µM (FBXL10 (h)): 22%
- inhibition at 10 µM (JMJD2B (h); 10 μM): 8%
- inhibition at 10 µM (hDNMT3a): -31%

Compound: Nc1ncnc2c1ncn2[C@@H]1O[C@H](CSCC[C@H](N)C(=O)O)[C@@H](O)[C@H]1O [SAH]
- IC50 (hDNMT3a; read-out: Reference IC50): 0.052 µM
